{"source": "paper PMC8143339", "about": "“PK/PD Modeling of the PDE7 Inhibitor—GRMS-55 in a Mouse Model of Autoimmune Hepatitis” (Pharmaceutics, 2021)", "key": {"[1]": {"assay": "Stability in serum samples and stock solutions (bioanalytical validation)", "format": "physicochemical, mouse", "procedure": "To analyze GRMS-55 concentrations in the mouse serum, we used the previously developed HPLC method with UV detection. A detailed description of this method was published in a supplementary material of our previous publication. Briefly, 10 μL of 4-(8-((furan-2-ylmethyl)amino)-1,3-dimethyl-2,6-dioxo-1,2,3,6-tetrahydro-7H-purin-7-yl)-N′-(2-hydroxybenzylidene)butanehydrazide solution as internal standard (IS) was added to tubes containing 100 μL of the analyzed serum. The samples were mixed with 20 μL of 1 M hydrochloric acid solution, subjected to extraction with 1 mL of dichloromethane, and centrifuged at 10,000× g for 8 min. The organic layers were transferred to new tubes and evaporated with nitrogen at 37 °C. Dry residues were then dissolved in 100 μL of mobile phase and transferred to glass vial inserts for HPLC analysis (LaChrom Elite, Merck-Hitachi, Darmstadt, Germany). […] Within runs and between runs, precision and accuracy met the acceptance criteria, i.e., they were less than 15% expressed as coefficients of variation % (CVs%) or ±15% of the nominal concentrations, respectively, for all quality control levels. Recoveries of the analyzed compound and IS assessed by comparing the peak areas of extracted samples with corresponding extracts of blanks spiked with the analyte post-extraction ranged from 94% to 98%. The lower limit of quantification was 0.05 mg·L^−1. […]"}, "ConA-induced hepatitis": {"test_system": "ConA-induced hepatitis", "assay": "Preliminary pharmacological evaluation in ConA-induced hepatitis", "format": "in vivo, BALB/c mice", "conditions": "8 h after ConA 20 mg/kg IV; IP pretreatment: rolipram 10, BRL-50481 50, GRMS-55 50 mg/kg; vs vehicle control", "procedure": "ConA was dissolved in sterile saline (2 mg·mL^−1). The studied compounds (GRMS-55, rolipram, and BRL-50481) were dissolved in a mixture of DMSO, PEG 400, and water for injection at a ratio of 25:25:50 (v/v/v). Mice were given an IP injection of the investigated compounds or the corresponding volume of vehicle alone and, thirty minutes later, intravenously (IV) administered with ConA solution. An additional control group received vehicle alone IP instead of the studied compounds followed by IV injection of sterile saline. ConA was given at a dose of 20 mg·kg^−1. Mice were exsanguinated at several time points post-ConA injection. Blood samples were allowed to clot for 0.5 h at room temperature and then centrifuged at 3000× g for 10 min to obtain the serum, which was stored at −20 °C until further analysis.\nThe influence of PDE inhibitors on the levels of inflammatory mediators and transaminases in ConA-treated mice was investigated in two separate experiments. In the preliminary study, the animals were pretreated IP with GRMS-55 at a dose of 50 mg·kg^−1, the PDE4-selective inhibitor rolipram at a dose of 10 mg·kg^−1, or the PDE7-selective inhibitor BRL-50481 at a dose of 50 mg·kg^−1. Doses of the investigated compounds were chosen based on the results of previous studies. Subsequently, mice were given an IV injection of ConA and sacrificed at 8 h following mitogen dosing. The levels of TNF-α, IL-6, and IFN-γ and the activities of ALT and AST in the mouse serum were measured. This preliminary experiment allowed comparing the activity of the studied PDE inhibitors in this AIH model and helped to select the doses of GRMS-55 for a subsequent pharmacodynamic study. In the final pharmacodynamic experiment, GRMS-55 was administered at two dose levels (50 and 100 mg·kg^−1) followed by ConA administration at a dose of 20 mg·kg^−1. Animals were sacrificed at various time points post-ConA dosing (1, 2, 4, 8 and 24 h). The levels of TNF-α, IL-1β, IL-4, IL-6, IL-10, IL-12, IL-17A, and IFN-γ were measured using a multiplex Luminex assay. In addition, the activities of ALT and AST in the mouse serum were assessed. The concentration–time profiles of the selected biomarkers obtained in this experiment combined with the results of pharmacokinetic analysis allowed the development of a semi-mechanistic PK/PD/disease progression model and the investigation of concentration–effect relationships of GRMS-55.\nThe serum samples from the preliminary pharmacological study were analyzed using ELISA tests according to the protocols provided by the manufacturers. The TNF-α concentrations were measured using the Mouse TNF-α Quantikine ELISA Kit (R&D Systems, Minneapolis, MN, USA), while the concentrations of IL-6 and IFN-gamma were quantified by ELISA kits manufactured by Cloud-Clone Corp. (Houston, TX, USA). The absorbance of samples was measured on a POLARstar Omega multi-mode microplate reader (BMG LABTECH, Ortenberg, Germany) set at 450 nm wavelength. TNF-α, IL-1β, IL-6, IL-4, IL-10, IL-12, IL-17A, and IFN-γ serum levels in samples from pharmacodynamic experiment were determined by a premixed Magnetic Luminex Assay (R&D Systems, Inc., Minneapolis, MN, USA) according to the manufacturer’s protocol. Serum AST and ALT activities were quantified on a chemistry analyzer BS-800 (Shenzhen Mindray Bio-medical Electronics Co., Ltd., Shenzhen, China)."}, "PDE3A": {"test_system": "PDE3A", "set-up": "method as in PMID 31899535", "conditions": "cited from earlier work"}, "TNF-α production": {"test_system": "TNF-α production", "set-up": "method as in PMID 31899535", "conditions": "rat lipopolysaccharide-induced endotoxemia, PK/PD model; cited from earlier work"}, "[2]": {"test_system": "paw edema in collagen-induced arthritis", "set-up": "method as in PMID 31899535", "conditions": "rats with collagen-induced arthritis, PK/PD arthritis progression model; cited from earlier work"}, "PDE4B": {"test_system": "PDE4B", "assay": "in vitro PDE4B inhibition assay", "format": "biochemical", "conditions": "ratio of IC50 values"}}, "data": [{"smiles": "Cn1c(=O)c2c(nc(NCCc3ccccc3)n2CCCC(=O)NN=Cc2ccccc2O)n(C)c1=O", "note": "[GRMS-55, 4-(1,3-dimethyl-2,6-dioxo-8-(phenethylamino)-1,2,3,6-tetrahydro-7H-purin-7-yl)-N′-(2-hydroxybenzylidene)butanehydrazide]", "values": [{"measurement": "stability in serum samples, time stable", "setting": "[1]; room temperature", "result": "at least 12 h"}, {"measurement": "stability in serum samples, time stable", "setting": "[1]; –20 °C", "result": 12, "unit": "months"}, {"measurement": "effect on serum IL-6 concentration", "setting": "ConA-induced hepatitis", "result": "decreased"}, {"measurement": "potency of PDE3A suppression", "setting": "PDE3A", "result": "moderate"}, {"measurement": "IC50, suppression of TNF-α production", "setting": "TNF-α production", "result": 1.06, "unit": "µg/mL"}, {"measurement": "IC50, decrease of paw edema", "setting": "[2]", "result": 0.26, "unit": "µg/mL"}, {"measurement": "times weaker inhibitor of PDE4B than rolipram", "setting": "PDE4B", "result": 24.5}]}]}
